Consider 15 compounds from patent US20240209053A1 (Protagonist Therapeutics, Inc., priority 2021, published 2024).

Numbered stars: 1 amine (or outer) side, 2 acyl side, 3 side chain; on linkers, the order of the positions; unused ones are H or OH. Bridge positions count the residues as written; N and C are the ends. Square brackets hold non-standard residues; d marks the D form. Side chains are listed from the residue outwards. Peptide text beside a SMILES is read from it. * marks the point of attachment. Dip = N[C@H](C(=O)O)C(c1ccccc1)c1ccccc1; Hag = O=C([C@H](CCC=[*:3])N[*:1])[*:2]; Palmitoyl = CCCCCCCCCCCCCCCC(=O)*; tBuAla = CC(C)(C)C[C@H](N)C(=O)O; β3hF = N[C@H](CC(=O)O)Cc1ccccc1; Isovaleryl = CC(C)CC(=O)*; Ahx = NCCCCCC(=O)O

Assay [1] deals with T1, human ferroportin (SLC40A1) (Homo sapiens, UniProt Q9NP59).
T1 sequence (Q9NP59 1-571): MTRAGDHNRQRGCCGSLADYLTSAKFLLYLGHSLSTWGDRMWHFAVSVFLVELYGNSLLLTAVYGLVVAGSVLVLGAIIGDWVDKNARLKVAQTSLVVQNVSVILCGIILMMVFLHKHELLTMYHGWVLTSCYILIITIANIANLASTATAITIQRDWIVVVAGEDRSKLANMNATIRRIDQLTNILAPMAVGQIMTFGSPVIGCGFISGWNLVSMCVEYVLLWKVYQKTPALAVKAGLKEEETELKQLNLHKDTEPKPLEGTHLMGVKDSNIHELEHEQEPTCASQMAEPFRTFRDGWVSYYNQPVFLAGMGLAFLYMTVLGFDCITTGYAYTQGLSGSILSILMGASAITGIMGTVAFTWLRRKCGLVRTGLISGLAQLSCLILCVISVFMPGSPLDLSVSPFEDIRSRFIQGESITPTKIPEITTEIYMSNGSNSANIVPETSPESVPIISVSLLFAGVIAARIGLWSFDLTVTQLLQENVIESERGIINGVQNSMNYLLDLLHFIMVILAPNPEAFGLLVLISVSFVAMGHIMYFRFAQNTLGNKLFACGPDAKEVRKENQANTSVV
Kind of assay: FPN activity assay: internalization/degradation of ferroportin-GFP in stably transfected HEK293 cells (decrease in GFP fluorescence). It is filed as cell-based. As to conditions: compound incubated at least 18 hours. The method in brief:
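HEK293 cells stably expressing human ferroportin C-terminally fused to GFP were exposed to peptides for at least 18 h, at most 24 h. Internalization/degradation read as loss of GFP fluorescence; EC50 derived. Retro-inverse mini-hepcidin peptides used as control standards.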

The next assay addresses T2, ferroportin (Homo sapiens, UniProt Q9NP59).
T2 sequence (Q9NP59 1-571): T1 sequence (Q9NP59 1-571)
Kind of assay: T47D cell-based ferroportin internalization assay in presence of 0.5% mouse serum albumin (MSA). As to conditions: T47D cells. As to the method: The potency of the peptides in causing ferroportin internalization was evaluated in a T47D cell-based assay. […] In this internalization assay, the potency of the test peptides was evaluated in presence of serum albumin which is the main protein component in the blood. T47D cells were maintained in RPMI media (containing required amount of fetal bovine serum) and regularly sub-cultured. In preparation for the assay, the cells were seeded in 96-well plates at a density of 80-100 k cells per well in 100 ul volume and allowed to rest overnight. On the next day, test peptides were first prepared in dilution series (10-point series, starting concentration of ˜5 μM, typically 3-4×fold dilution steps), all with 0.5% mouse serum albumin (MSA purified from mouse serum; Sigma, A3139). The test peptide dilution series were allowed to incubate at room temperature for 30 min. Then the media was aspirated from the 96-well cell plate and test peptide dilution series were added. After 1 hr incubation, the media with test peptides was aspirated out and AF647-conjugated detection peptide was added at fixed concentration of 200 nM. The AF647-conjugated detection peptide was previously verified to bind to ferroportin and cause its internalization. The cells were washed again after a 2 hr incubation in preparation for flow cytometry analysis. The Median Fluorescence Intensity (MFI) of the AF647-positive population was measured (after removing dead cells and non-singlets from the analysis). The MFI values were used to generate a dose-response curve and obtain IC50 potencies for the test peptides. The IC50 potencies were calculated by using 4-parameter non-linear fitting function in Graphpad Prism (Table 6A).

What is called IC50 is the concentration that inhibits the measured activity by half. Take `CCCCCCCCCCCCCCCC(=O)NCCCCCC(=O)NCCCC[C@H](NC(=O)[C@@H]1CCC=CCC[C@H](NC(=O)CC(C)C)C(=O)N[C@@H]([C@@H](C)O)C(=O)N[C@@H](Cc2c[nH]cn2)C(=O)N[C@@H](C(c2ccccc2)c2ccccc2)C(=O)N2CCC[C@H]2C(=O)N[C@@H](C)C(=O)N[C@@H]([C@@H](C)CC)C(=O)N1)C(N)=O` [Compd 18] (Isovaleryl-[Hag]TH[Dip]PAI[Hag]K([Ahx-Palmitoyl])-NH2; staple 1-8): the results for the IC50 (in assay [1]; at ferroportin) were 100 to 500 nM and 10 to 100 nM, respectively.

For `CCCCCCCCCCCCCCCC(=O)NCCCCCC(=O)NCCCC[C@H](NC(=O)C[C@H](Cc1ccccc1)NC(=O)[C@@H]1CC=CCC[C@H](NC(=O)CC(C)C)C(=O)N[C@@H]([C@@H](C)O)C(=O)N[C@@H](Cc2c[nH]cn2)C(=O)N[C@@H](C(c2ccccc2)c2ccccc2)C(=O)N2CCC[C@H]2C(=O)N[C@@H](C)C(=O)N[C@@H]([C@@H](C)CC)C(=O)N1)C(=O)N[C@H](CCCCN)C(N)=O` [Compd 26], the 50% inhibitory concentration (IC50) (in assay [1]; on ferroportin) was 10 to 100 nM in each case.

For the compound `CCCCCCCCCCCCCCCC(=O)NCCCCCC(=O)NCCCC[C@H](NC(=O)C[C@H](Cc1ccccc1)NC(=O)[C@@H]1CCC=CCC[C@H](NC(=O)CC(C)C)C(=O)N[C@@H]([C@@H](C)O)C(=O)N[C@@H](Cc2c[nH]cn2)C(=O)N[C@@H](C(c2ccccc2)c2ccccc2)C(=O)N2CCC[C@H]2C(=O)N[C@@H](C)C(=O)N[C@@H](C)C(=O)N1)C(=O)N[C@H](CCCCN)C(N)=O` [Compd 45] (Isovaleryl-[Hag]TH[Dip]PAA[Hag][β3hF]K([Ahx-Palmitoyl])[dK]-NH2; staple 1-8), the IC50 (in assay [1]; at ferroportin) was 10 to 100 nM throughout.

`CCCCCCCCCCCCCCCC(=O)NCCCCCC(=O)NCCCC[C@H](NC(=O)C[C@H](Cc1ccccc1)NC(=O)[C@H]1CCC=CCC[C@@H](NC(=O)CC(C)C)C(=O)N[C@@H]([C@@H](C)O)C(=O)N[C@@H](Cc2c[nH]cn2)C(=O)N[C@@H](C(c2ccccc2)c2ccccc2)C(=O)N2CCC[C@H]2C(=O)N[C@@H](C)C(=O)N[C@@H]([C@@H](C)CC)C(=O)N1)C(=O)N[C@H](CCCCN)C(N)=O` [Compd 72]: the values for the IC50 (in assay [1]; on ferroportin) were 10 to 100 nM and 100 to 500 nM, respectively.

Regarding `CCCCCCCCCCCCCCCC(=O)NCCCCCC(=O)NCCCC[C@H](NC(=O)C[C@H](Cc1ccccc1)NC(=O)[C@H]1CCC=CCCC[C@H](NC(=O)CC(C)C)C(=O)N[C@@H]([C@@H](C)O)C(=O)N[C@@H](Cc2c[nH]cn2)C(=O)N[C@@H](C(c2ccccc2)c2ccccc2)C(=O)N2CCC[C@H]2C(=O)N[C@@H](C)C(=O)N[C@@H]([C@@H](C)CC)C(=O)N1)C(=O)N[C@H](CCCCN)C(N)=O` [Compd 78], the figures for the IC50 (in assay [1]; at ferroportin) were 10 to 100 nM and 100 to 500 nM, respectively.

`CCCCCCCCCCCCCCCC(=O)NCCCCCC(=O)NCCCC[C@H](NC(=O)[C@H](Cc1ccccc1)N(C)C(=O)[C@@H]1CCC=CCC[C@H](NC(=O)CC(C)C)C(=O)N[C@@H]([C@@H](C)O)C(=O)N[C@@H](Cc2c[nH]cn2)C(=O)N[C@@H](C(c2ccccc2)c2ccccc2)C(=O)N2CCC[C@H]2C(=O)N[C@@H](C)C(=O)N[C@@H]([C@@H](C)CC)C(=O)N1)C(=O)N[C@H](CCCCN)C(N)=O` [Compd 54]: the IC50 in assay [1] lay within 10 to 100 nM; on ferroportin, 100 to 500 nM.

As for `CCCCCCCCCCCCCCCC(=O)NCCCCCC(=O)NCCCC[C@H](NC(=O)C[C@H](Cc1ccccc1)NC(=O)[C@@H]1CCC=CCC[C@@H](NC(=O)CC(C)C)C(=O)N[C@@H]([C@@H](C)O)C(=O)N[C@@H](Cc2c[nH]cn2)C(=O)N[C@@H](C(c2ccccc2)c2ccccc2)C(=O)N2CCC[C@H]2C(=O)N[C@@H](C)C(=O)N[C@@H]([C@@H](C)CC)C(=O)N1)C(=O)N[C@H](CCCCN)C(N)=O` [Compd 68], the IC50 in assay [1] fell in the range of 10 to 100 nM; at ferroportin, 100 to 500 nM.

Take `CCCCCCCCCCCCCCCC(=O)NCCCCCC(=O)NCCCC[C@@H]1NC(=O)[C@@H]2CCCN2C(=O)[C@H](C(c2ccccc2)c2ccccc2)NC(=O)[C@H](Cc2c[nH]cn2)NC(=O)[C@H]([C@@H](C)O)NC(=O)[C@@H](NC(=O)CC(C)C)CCCC=CCCC[C@@H](C(=O)N[C@H](CC(=O)N[C@H](CCCCN)C(N)=O)Cc2ccccc2)NC(=O)[C@H]([C@@H](C)CC)NC1=O` [Compd 33]: the 50% inhibitory concentration (IC50) (in assay [1]; on ferroportin) was 1 to 10 nM in each case.

For the compound `CCCCCCCCCCCCCCCC(=O)NCCCCCC(=O)NCCCC[C@@H]1NC(=O)[C@@H]2CCCN2C(=O)[C@H](C(c2ccccc2)c2ccccc2)NC(=O)[C@H](Cc2c[nH]cn2)NC(=O)[C@H]([C@@H](C)O)NC(=O)[C@@H](NC(=O)CC(C)C)CCC=CCC[C@@H](C(=O)N[C@H](CC(=O)N[C@H](CCCCN)C(N)=O)Cc2ccccc2)NC(=O)[C@H]([C@@H](C)CC)NC1=O` [Compd 36], the values for the IC50 (in assay [1]; on ferroportin) were 10 to 100 nM and 1 to 10 nM, respectively.

As for `CCCCCCCCCCCCCCCC(=O)NCCCCCC(=O)NCCCC[C@H](NC(=O)C[C@H](Cc1ccccc1)NC(=O)[C@@H]1CCC=CCC[C@H](NC(=O)CC(C)C)C(=O)N[C@@H]([C@@H](C)O)C(=O)N[C@@H](Cc2c[nH]cn2)C(=O)N[C@@H](C(c2ccccc2)c2ccccc2)C(=O)N2CCC[C@H]2C(=O)N[C@@H](C)C(=O)N[C@@H](CC(C)(C)C)C(=O)N1)C(=O)N[C@H](CCCCN)C(N)=O` [Compd 63] (Isovaleryl-[Hag]TH[Dip]PA[tBuAla][Hag][β3hF]K([Ahx-Palmitoyl])[dK]-NH2; staple 1-8), the IC50 (in assay [1]; on ferroportin) was 1 to 10 nM throughout.

On to `CCCCCCCCCCCCCCCC(=O)NCCCCCC(=O)NCCCC[C@H](NC(=O)C[C@H](Cc1ccccc1)NC(=O)[C@@H]1CCC=CCC[C@H](NC(=O)CC(C)C)C(=O)N[C@@H]([C@@H](C)O)C(=O)N[C@@H](Cc2c[nH]cn2)C(=O)N[C@@H](C(c2ccccc2)c2ccccc2)C(=O)N2CCC[C@H]2C(=O)N[C@@H](C)C(=O)N[C@@H]([C@@H](C)CC)C(=O)N1)C(=O)N[C@H](CCCCN)C(N)=O` [Peptide ID #16, Isovaleric Acid-[Ala(2)]-T-H-[Dpa]-P-A-I-[Ala(2)]-[bhPhe]-[Lys(Ahx_Palm)]-[(D)Lys]-NH2], for which the IC50 in assay [1] is 1 to 10 nM; on ferroportin it was 10 to 100 nM.

For `CCCCCCCCCCCCCCCC(=O)NCCCCCC(=O)NCCCC[C@@H]1NC(=O)[C@H](C)NC(=O)[C@@H]2CCCN2C(=O)[C@H](C(c2ccccc2)c2ccccc2)NC(=O)[C@H](Cc2c[nH]cn2)NC(=O)[C@H]([C@@H](C)O)NC(=O)[C@@H](NC(=O)CC(C)C)CCC=CCC[C@@H](C(=O)N[C@H](CC(=O)N[C@H](CCCCN)C(N)=O)Cc2ccccc2)NC1=O` (single isomer, unassigned) [Compd 37], the IC50 (in assay [1]; at ferroportin) was 100 to 500 nM each time.

As to `CCCCCCCCCCCCCCCC(=O)NCCCCCC(=O)NCCCC[C@@H]1NC(=O)[C@H](C)NC(=O)[C@@H]2CCCN2C(=O)[C@H](C(c2ccccc2)c2ccccc2)NC(=O)[C@H](Cc2c[nH]cn2)NC(=O)[C@H]([C@@H](C)O)NC(=O)[C@@H](NC(=O)CC(C)C)CCCC=CCCC[C@@H](C(=O)N[C@H](CC(=O)N[C@H](CCCCN)C(N)=O)Cc2ccccc2)NC1=O` [Compd 34], the IC50 (in assay [1]; on ferroportin) was 1 to 10 nM in each case.

For the compound `CCCCCCCCCCCCCCCC(=O)NCCCCCC(=O)NCCCC[C@H](NC(=O)C[C@H](Cc1ccccc1)NC(=O)[C@@H]1CCC=CCC[C@H](NC(=O)CC(C)C)C(=O)N[C@@H]([C@@H](C)O)C(=O)N[C@@H](Cc2c[nH]cn2)C(=O)N[C@@H](C(c2ccccc2)c2ccccc2)C(=O)N2CCC[C@H]2C(=O)N(C)[C@@H](C)C(=O)N[C@@H]([C@@H](C)CC)C(=O)N1)C(=O)N[C@H](CCCCN)C(N)=O` [Compd 52], the IC50 (in assay [1]; at ferroportin) was 10 to 100 nM throughout.

Regarding `CCCCCCCCCCCCCCCC(=O)NCCCCCC(=O)NCCCC[C@H](NC(=O)C[C@H](Cc1ccccc1)NC(=O)[C@@H](CCCCN)NC(=O)[C@@H]1CCC=CCC[C@H](NC(=O)[C@@H]2CCCN2C(=O)[C@@H](NC(=O)[C@H](Cc2c[nH]cn2)NC(=O)[C@@H](NC(=O)[C@H](CCC(=O)O)NC(=O)CC(C)C)[C@@H](C)O)C(c2ccccc2)c2ccccc2)C(=O)N1)C(=O)N[C@H](CCCCN)C(N)=O` [Compd 15], the IC50 was 10 to 100 nM in assay [1] and 1 to 10 nM at ferroportin.
